Laboratory results published in US20200405697A1, “Antitumor Agent” (Taiho Pharmaceutical Co., Ltd, priority 2017, published 2020).

The compounds below were run against T1, human RNR (histidine tagged human M1 and human M2 proteins) (Homo sapiens, UniProt P23921) (assay: Human RNR inhibition effect (dCDP formation from CDP)). Settings: 10 μM CDP, 37° C. for 30 minutes, read-out: RNR inhibitory activity IC50.
T1 construct: made in house; host or cells: Escherichia coli
T1 sequence (P23921 1-792): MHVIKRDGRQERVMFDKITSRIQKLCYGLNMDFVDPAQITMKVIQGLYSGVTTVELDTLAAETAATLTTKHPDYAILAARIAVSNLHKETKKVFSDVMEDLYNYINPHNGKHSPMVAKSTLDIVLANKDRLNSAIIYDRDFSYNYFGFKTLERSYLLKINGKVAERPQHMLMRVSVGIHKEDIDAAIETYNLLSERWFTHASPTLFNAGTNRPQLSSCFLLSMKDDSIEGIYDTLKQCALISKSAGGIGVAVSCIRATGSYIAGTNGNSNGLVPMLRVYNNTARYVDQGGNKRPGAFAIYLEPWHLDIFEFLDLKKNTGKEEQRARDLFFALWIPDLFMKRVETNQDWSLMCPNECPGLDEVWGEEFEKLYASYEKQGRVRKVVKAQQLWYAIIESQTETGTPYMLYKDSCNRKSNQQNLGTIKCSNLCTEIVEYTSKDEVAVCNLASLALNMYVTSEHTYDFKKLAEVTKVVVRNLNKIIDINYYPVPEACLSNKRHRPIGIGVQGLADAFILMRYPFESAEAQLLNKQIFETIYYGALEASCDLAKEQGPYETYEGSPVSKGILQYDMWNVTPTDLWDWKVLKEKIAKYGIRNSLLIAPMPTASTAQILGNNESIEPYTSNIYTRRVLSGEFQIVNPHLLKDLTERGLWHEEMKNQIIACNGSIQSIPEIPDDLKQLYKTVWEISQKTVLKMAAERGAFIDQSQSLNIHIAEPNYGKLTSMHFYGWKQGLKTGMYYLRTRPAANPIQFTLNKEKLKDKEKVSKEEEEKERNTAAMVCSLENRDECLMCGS
Assay type: biochemical
Summary of the method: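 His-tagged human M1 (isoform 1) and N-terminal 59-aa-truncated M2 (isoform 2), E. coli-expressed, Ni-purified, preincubated 20 min with compound (1% DMSO). Reaction with 10 μM CDP, 2 mM ATP, 0.24 mM NADPH, 6 mM DTT, 4 mM Mg acetate, 100 mM KCl, 50 mM HEPES pH 7.2, 30 min at 37° C. dCDP formed quantified by reverse-phase HPLC after heat stop.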

| SMILES | IC50 |
| --- | --- |
| Cc1ccc(F)c([C@@H](C)[C@H](NS(=O)(=O)c2ccc(Cl)c(C(=O)N3CCC4(COC4)C3)n2)c2n[nH]c(=O)o2)c1C [Example 155, 5-chloro-N-((1S,2R)-2-(6-fluoro-2,3-dimethylphenyl)-1-(5-oxo-4,5-dihydro-1,3,4-oxadiazol-2-yl)propyl)-6-(2-oxa-6-aza-spiro[3.4]octane-6-carbonyl)pyridine-2-sulfonamide] | 130 nM |
| Cc1ccc(F)c([C@@H](C)[C@H](NS(=O)(=O)c2ccc(Cl)c(C(=O)N3CCC4(CC3)COC4)n2)c2n[nH]c(=O)o2)c1C [Example 156, 5-chloro-N-((1S,2R)-2-(6-fluoro-2,3-dimethylphenyl)-1-(5-oxo-4,5-dihydro-1,3,4-oxadiazol-2-yl)propyl)-6-(2-oxa-7-azaspiro[3.5]nonane-7-carbonyl)pyridine-2-sulfonamide] | 80 nM |
| CC(=O)NC1CCOc2c(S(=O)(=O)N[C@H](c3n[nH]c(=O)o3)[C@H](C)c3c(F)ccc(C)c3C)ccc(Cl)c21 (stereo partly drawn) [Example 157, N-(5-chloro-8-(N-((1S,2R)-2-(6-fluoro-2,3-dimethylphenyl)-1-(5-oxo-4,5-dihydro-1,3,4-oxadiazol-2-yl)propyl)sulfamoyl)chroman-4-yl)acetamide] | 100 nM |
| Cc1ccc(F)c([C@@H](C)[C@H](NS(=O)(=O)c2ccc(Cl)s2)c2n[nH]c(=O)o2)c1C [Example 158, 5-chloro-N-((1S,2R)-2-(6-fluoro-2,3-dimethylphenyl)-1-(5-oxo-4,5-dihydro-1,3,4-oxadiazol-2-yl)propyl)thiophene-2-sulfonamide] | 450 nM |
| Cc1ccc(F)c([C@@H](C)[C@H](NS(=O)(=O)c2ccc(F)c3c2OCCC3=O)c2n[nH]c(=O)o2)c1C [Example 159, 5-fluoro-N-((1S,2R)-2-(6-fluoro-2,3-dimethylphenyl)-1-(5-oxo-4,5-dihydro-1,3,4-oxadiazol-2-yl)propyl)-4-oxochroman-8-sulfonamide] | 160 nM |
| Cc1ccc(F)c([C@@H](C)[C@H](NS(=O)(=O)c2ccc(Cl)c(-c3nnn[nH]3)c2)c2n[nH]c(=O)o2)c1C [Example 161, 4-chloro-N-((1S,2R)-2-(6-fluoro-2,3-dimethylphenyl)-1-(5-oxo-4,5-dihydro-1,3,4-oxadiazol-2-yl)propyl)-3-(1H-tetrazol-5-yl)benzenesulfonamide] | 280 nM |
| Cc1ccc(F)c([C@@H](C)[C@H](NS(=O)(=O)c2cccc3c2OCCO3)c2n[nH]c(=O)o2)c1C [Example 164, N-((1S,2R)-2-(6-fluoro-2,3-dimethylphenyl)-1-(5-oxo-4,5-dihydro-1,3,4-oxadiazol-2-yl)propyl)-2,3-dihydrobenzo[b][1,4]dioxin-5-sulfonamide] | 330 nM |
| CC(=O)OC1(C)CCOc2c(S(=O)(=O)N[C@H](c3n[nH]c(=O)o3)[C@H](C)c3c(F)ccc(Br)c3C)ccc(Cl)c21 (some centres unmarked) [Example 167] | 80 nM |
| Cc1ccc(F)c([C@@H](C)[C@H](NS(=O)(=O)c2ccc3c(c2)OCCO3)c2n[nH]c(=O)o2)c1C [Example 173, N-((1S,2R)-2-(6-fluoro-2,3-dimethylphenyl)-1-(5-oxo-4,5-dihydro-1,3,4-oxadiazol-2-yl)propyl)-2,3-dihydrobenzo[b][1,4]dioxin-6-sulfonamide] | 130 nM |
| Cc1ccc(F)c([C@@H](C)[C@H](NS(=O)(=O)c2ccc3c(c2)C(=O)CCC3)c2n[nH]c(=O)o2)c1C [Example 174, N-((1S,2R)-2-(6-fluoro-2,3-dimethylphenyl)-1-(5-oxo-4,5-dihydro-1,3,4-oxadiazol-2-yl)propyl)-8-oxo-5,6,7,8-tetrahydronaphthalene-2-sulfonamide] | 350 nM |

Further lines, results first:

| IC50 | SMILES |
| --- | --- |
| 740 nM | Cc1ccc(F)c([C@@H](C)[C@H](NS(=O)(=O)c2ccc3c(c2)CC(=O)N3)c2n[nH]c(=O)o2)c1C [Example 162, N-((1S,2R)-2-(6-fluoro-2,3-dimethylphenyl)-1-(5-oxo-4,5-dihydro-1,3,4-oxadiazol-2-yl)propyl)-2-oxoindoline-5-sulfonamide] |
| 830 nM | Cc1ccc(F)c([C@@H](C)[C@H](NS(=O)(=O)c2ccc3[nH]c(=O)[nH]c3c2)c2n[nH]c(=O)o2)c1C [Example 165, N-((1S,2R)-2-(6-fluoro-2,3-dimethylphenyl)-1-(5-oxo-4,5-dihydro-1,3,4-oxadiazol-2-yl)propyl)-2-oxo-2,3-dihydro-1H-benzo[d]imidazole-5-sulfonamide] |
| 190 nM | Cc1ccc(F)c([C@@H](C)[C@H](NS(=O)(=O)c2ccc(F)c(S(C)(=O)=O)c2)c2n[nH]c(=O)o2)c1C [Example 169, 4-fluoro-N-((1S,2R)-2-(6-fluoro-2,3-dimethylphenyl)-1-(5-oxo-4,5-dihydro-1,3,4-oxadiazol-2-yl)propyl)-3-(methylsulfonyl)benzenesulfonamide] |
| 470 nM | Cc1ccc(S(=O)(=O)N[C@H](c2n[nH]c(=O)o2)[C@H](C)c2c(F)ccc(C)c2C)cc1S(=O)(=O)N1CCCCC1 [Example 171, N-((1S,2R)-2-(6-fluoro-2,3-dimethylphenyl)-1-(5-oxo-4,5-dihydro-1,3,4-oxadiazol-2-yl)propyl)-4-methyl-3-(piperidin-1-ylsulfonyl)benzenesulfonamide] |
| 820 nM | Cc1ccc(F)c([C@@H](C)[C@H](NS(=O)(=O)c2ccc3[nH]c(=O)c(=O)[nH]c3c2)c2n[nH]c(=O)o2)c1C [Example 172, N-((1S,2R)-2-(6-fluoro-2,3-dimethylphenyl)-1-(5-oxo-4,5-dihydro-1,3,4-oxadiazol-2-yl)propyl)-2,3-dioxo-1,2,3,4-tetrahydroquinoxaline-6-sulfonamide] |
| 810 nM | Cc1ccc(F)c([C@@H](C)[C@H](NS(=O)(=O)c2ccc(Cl)c(S(N)(=O)=O)c2)c2n[nH]c(=O)o2)c1C [Example 176, 4-chloro-N1-((1S,2R)-2-(6-fluoro-2,3-dimethylphenyl)-1-(5-oxo-4,5-dihydro-1,3,4-oxadiazol-2-yl)propyl)benzene-1,3-disulfonamide] |
| 170 nM | COC(=O)c1c(F)ccc(S(=O)(=O)N[C@H](c2n[nH]c(=O)o2)[C@H](C)c2c(F)ccc(C)c2C)c1F [Example 178, methyl 2,6-difluoro-3-(N-((1S,2R)-2-(6-fluoro-2,3-dimethylphenyl)-1-(5-oxo-4,5-dihydro-1,3,4-oxadiazol-2-yl)propyl)sulfamoyl)benzoate] |
| 280 nM | Cc1ccc(F)c([C@@H](C)[C@H](NS(=O)(=O)c2ccc3c(c2)C(=O)CCO3)c2n[nH]c(=O)o2)c1C [Example 179, N-((1S,2R)-2-(6-fluoro-2,3-dimethylphenyl)-1-(5-oxo-4,5-dihydro-1,3,4-oxadiazol-2-yl)propyl)-4-oxochroman-6-sulfonamide] |
| 660 nM | Cc1ccc(F)c([C@@H](C)[C@H](NS(=O)(=O)c2ccc3[nH]nnc3c2)c2n[nH]c(=O)o2)c1C [Example 181, N-((1S,2R)-2-(6-fluoro-2,3-dimethylphenyl)-1-(5-oxo-4,5-dihydro-1,3,4-oxadiazol-2-yl)propyl)-1H-benzo[d][1,2,3]triazole-5-sulfonamide] |
| 410 nM | Cc1ccc(F)c([C@@H](C)[C@H](NS(=O)(=O)c2ccc3[nH]ncc3c2)c2n[nH]c(=O)o2)c1C [Example 182, N-((1S,2R)-2-(6-fluoro-2,3-dimethylphenyl)-1-(5-oxo-4,5-dihydro-1,3,4-oxadiazol-2-yl)propyl)-1H-indazole-5-sulfonamide] |
